We go through three molecules from patent publication US11117947B2, “Double-acylated GLP-1 derivatives” (Novo Nordisk A/S, priority 2011, dated 2021).

Read-outs that look alike come from different tables or passages of the source. Numbered stars: 1 amine (or outer) side, 2 acyl side, 3 side chain; on linkers, the order of the positions; unused ones are H or OH. Square brackets hold non-standard residues; d marks the D form. Side chains are listed from the residue outwards. Peptide text beside a SMILES is read from it. * marks the point of attachment. Decanoyl(10-(4-HOOC-PhO)) = O=C(O)c1ccc(OCCCCCCCCCC(=O)*)cc1; d(γGlu) = O=C(O)[C@@H](CCC(=O)[*:2])N[*:1]; γGlu = O=C(O)[C@H](CCC(=O)[*:2])N[*:1]; C14 diacid = O=C(O)CCCCCCCCCCCCC(=O)*; AEEA = NCCOCCOCC(=O)O; Aib = CC(C)(N)C(=O)O

Assay [1] concerns the target T1, human GLP-1 receptor (Homo sapiens, UniProt P43220).
T1 construct: expressed in transfected cells; membranes
Description: In vitro potency: stimulation of cAMP formation (AlphaScreen cAMP Assay) in membranes expressing the human GLP-1 receptor. The format is biochemical. The settings on record: membranes from BHK467-12A (tk-ts13) expressing the human GLP-1 receptor. How it is done: Purified plasma membranes from a stable transfected cell line, BHK467-12A (tk-ts13), expressing the human GLP-1 receptor were stimulated with the GLP-1 analogue or derivative in question, and the potency of cAMP production was measured using the AlphaScreen™ cAMP Assay Kit from Perkin Elmer Life Sciences. The basic principle of the AlphaScreen Assay is a competition between endogenous cAMP and exogenously added biotin-cAMP. The capture of cAMP is achieved by using a specific antibody conjugated to acceptor beads.
A stable transfected cell line and a high expressing clone were selected for screening. The cells were grown at 5% CO2 in DMEM, 5% FCS, 1% Pen/Strep (Penicillin/Streptomycin) and 0.5 mg/ml of the selection marker G418.
Cells at approximately 80% confluence were washed 2× with PBS and harvested with Versene (aqueous solution of the tetrasodium salt of ethylenediaminetetraacetic acid), centrifuged 5 min at 1000 rpm and the supernatant removed. The additional steps were all performed on ice. The cell pellet was homogenised by the Ultrathurax for 20-30 s in 10 ml of Buffer 1 (20 mM Na-HEPES, 10 mM EDTA, pH=7.4), centrifuged 15 min at 20,000 rpm and the pellet resuspended in 10 ml of Buffer 2 (20 mM Na-HEPES, 0.1 mM EDTA, pH=7.4). The suspension was homogenised for 20-30 s and centrifuged 15 min at 20,000 rpm. Suspension in Buffer 2, homogenisation and centrifugation was repeated once and the membranes were resuspended in Buffer 2. The protein concentration was determined and the membranes stored at −80° C. until use.
The final volume per well was 50 μl.
AlphaScreen cAMP Assay Kit from Perkin Elmer Life Sciences (cat. No: 6760625M); containing Anti-cAMP Acceptor beads (10 U/μl), Streptavidin Donor beads (10 U/μl) and Biotinylated-cAMP (133 U/μl).
cAMP standard (dilution factor in assay=5): cAMP Solution: 5 μL of a 5 mM cAMP-stock+495 μL AlphaScreen Buffer.
Membranes were prepared from hGLP-1/BHK 467-12A cells with a concentration of 6 μg/well corresponding to 0.6 mg/ml (the amount of membranes used pr. well may vary)
“No membranes”: Acceptor Beads (15 μg/ml final) in AlphaScreen buffer
“6 μg/well membranes”: membranes+Acceptor Beads (15 μg/ml final) in AlphaScreen buffer
An aliquot (10 μl) of “No membranes” was added to the cAMP standard (per well in duplicate wells) and the positive and negative controls
An aliquot (10 μl) of “6 μg/well membranes” was added to GLP-1 and analogues (per well in duplicate or triplicate wells)
Pos. Control: 10 μl “no membranes”+10 μl AlphaScreen Buffer
Neg. Control: 10 μl “no membranes”+10 μl cAMP Stock Solution (50 μM)
1. Make the AlphaScreen Buffer.
2. Dissolve and dilute the GLP-1/Analogues/cAMP standard in AlphaScreen Buffer.
4. Add the cAMP/GLP-1/Analogues to the plate: 10 μl per well.
5. Prepare membrane/Acceptor Beads solution and add this to the plates: 10 μl per well.
6. Add the Donor Beads: 30 μl per well.
(In general: cAMP levels reflect the balance of adenylyl cyclase and phosphodiesterase activity.)

Assay [2] addresses T1, human GLP-1 receptor. The experiment in a line: GLP-1 receptor binding: displacement of 125I-GLP-1 (SPA) at low and high albumin. The method in brief:
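Membranes from hamster cells stably transfected with the receptor, with WGA SPA beads and 0.06 nM [^125I]-GLP-1(7-36)NH2, incubated 120 min at 30 °C with shaking.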
(In general: In a radioligand displacement assay an active substance lowers the binding of a labelled ligand.)

Where [3] appears, read: low albumin, 0.001% HSA, read-out: IC50/nM (low HSA).

T1 sequence (P43220 24-463): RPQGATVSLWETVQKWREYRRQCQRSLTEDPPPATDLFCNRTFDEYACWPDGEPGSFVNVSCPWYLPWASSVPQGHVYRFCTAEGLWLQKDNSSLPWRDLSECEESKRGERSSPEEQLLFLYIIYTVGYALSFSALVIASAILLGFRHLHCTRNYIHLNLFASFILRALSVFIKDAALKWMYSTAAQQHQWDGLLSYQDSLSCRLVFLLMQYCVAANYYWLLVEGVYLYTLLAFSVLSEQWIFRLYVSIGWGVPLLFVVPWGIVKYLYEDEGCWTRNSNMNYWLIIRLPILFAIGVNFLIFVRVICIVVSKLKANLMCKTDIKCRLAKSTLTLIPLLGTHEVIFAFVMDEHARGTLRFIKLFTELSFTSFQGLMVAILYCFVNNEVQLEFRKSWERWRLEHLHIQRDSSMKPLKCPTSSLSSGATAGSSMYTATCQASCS

On to `CC[C@H](C)[C@H](NC(=O)[C@H](Cc1ccccc1)NC(=O)[C@H](CCCCNC(=O)COCCOCCNC(=O)COCCOCCNC(=O)CC[C@H](NC(=O)CCCCCCCCCOc1ccc(C(=O)O)cc1)C(=O)O)NC(=O)[C@H](CCCNC(=N)N)NC(=O)[C@H](C)NC(=O)[C@H](CCCCNC(=O)COCCOCCNC(=O)COCCOCCNC(=O)CC[C@H](NC(=O)CCCCCCCCCOc1ccc(C(=O)O)cc1)C(=O)O)NC(=O)[C@H](CCC(N)=O)NC(=O)[C@H](CCC(=O)O)NC(=O)[C@H](CCC(=O)O)NC(=O)[C@H](CC(C)C)NC(=O)[C@H](Cc1ccc(O)cc1)NC(=O)[C@H](CO)NC(=O)[C@H](CO)NC(=O)[C@@H](NC(=O)[C@H](CC(=O)O)NC(=O)[C@H](CO)NC(=O)[C@@H](NC(=O)[C@H](Cc1ccccc1)NC(=O)[C@@H](NC(=O)CNC(=O)[C@H](CCC(=O)O)NC(=O)[C@H](C)NC(=O)[C@@H](N)Cc1c[nH]cn1)[C@@H](C)O)[C@@H](C)O)C(C)C)C(=O)N[C@@H](C)C(=O)N[C@@H](Cc1c[nH]cn1)C(=O)N[C@@H](CC(C)C)C(=O)N[C@H](C(=O)NCC(=O)O)C(C)C` [Example 25, N^ε24-[2-[2-[2-[[2-[2-[2-[[(4S)-4-carboxy-4-[10-(4-carboxyphenoxy)decanoylamino]butanoyl]amino]ethoxy]ethoxy]acetyl]amino]ethoxy]ethoxy]acetyl], N^ε27-[2-[2-[2-[[2-[2-[2-[[(4S)-4-carboxy-4-[10-(4-carboxyphenoxy)decanoylamino]butanoyl]amino]ethoxy]ethoxy]acetyl]amino]ethoxy]ethoxy]acetyl]-[Glu^22,Lys^24,Arg^26,Lys^27,His^31,Gly^34]-GLP-1-(7-34)-peptide] (H-HAEGTFTSDVSSYLEEQK([AEEA-AEEA-γGlu-Decanoyl(10-(4-HOOC-PhO))])ARK([AEEA-AEEA-γGlu-Decanoyl(10-(4-HOOC-PhO))])FIAHLVG-OH; N-terminus and C-terminus assumed), for which the EC50 in assay [1] was 0.38 nM.

`CC[C@H](C)[C@H](NC(=O)[C@H](Cc1ccccc1)NC(=O)[C@H](CCCCNC(=O)CC[C@H](NC(=O)COCCOCCNC(=O)COCCOCCNC(=O)CC[C@@H](NC(=O)CCCCCCCCCOc1ccc(C(=O)O)cc1)C(=O)O)C(=O)O)NC(=O)[C@H](CCCNC(=N)N)NC(=O)[C@@H](NC(=O)[C@H](C)NC(=O)[C@H](CCC(N)=O)NC(=O)CNC(=O)[C@H](CCC(=O)O)NC(=O)[C@H](CC(C)C)NC(=O)[C@H](Cc1ccc(O)cc1)NC(=O)[C@H](CO)NC(=O)[C@H](CO)NC(=O)[C@@H](NC(=O)[C@H](CC(=O)O)NC(=O)[C@H](CO)NC(=O)[C@@H](NC(=O)[C@H](Cc1ccccc1)NC(=O)[C@@H](NC(=O)CNC(=O)[C@H](CCC(=O)O)NC(=O)[C@H](C)NC(=O)[C@@H](N)Cc1c[nH]cn1)[C@@H](C)O)[C@@H](C)O)C(C)C)C(C)C)C(=O)N[C@@H](C)C(=O)N[C@@H](Cc1c[nH]c2ccccc12)C(=O)N[C@@H](CC(C)C)C(=O)N[C@H](C(=O)N[C@@H](CCC(N)=O)C(=O)NCC(=O)N[C@@H](CCCCNC(=O)CC[C@H](NC(=O)COCCOCCNC(=O)COCCOCCNC(=O)CC[C@@H](NC(=O)CCCCCCCCCOc1ccc(C(=O)O)cc1)C(=O)O)C(=O)O)C(=O)NCC(=O)O)C(C)C` [Example 26] (H-HAEGTFTSDVSSYLEGQAVRK([γGlu-AEEA-AEEA-d(γGlu)-Decanoyl(10-(4-HOOC-PhO))])FIAWLVQGK([γGlu-AEEA-AEEA-d(γGlu)-Decanoyl(10-(4-HOOC-PhO))])G-OH; N-terminus and C-terminus assumed) returned an EC50 in assay [1] of 0.2 nM. For the same molecule, the IC50 in assay [2] (setting [3]) is 0.38 nM.

Molecule `CC[C@H](C)[C@H](NC(=O)[C@H](Cc1ccccc1)NC(=O)[C@H](CCCCNC(=O)COCCOCCNC(=O)COCCOCCNC(=O)CC[C@H](NC(=O)CCCCCCCCCCCCC(=O)O)C(=O)O)NC(=O)[C@H](CCCNC(=N)N)NC(=O)[C@@H](NC(=O)[C@H](CCCCNC(=O)COCCOCCNC(=O)COCCOCCNC(=O)CC[C@H](NC(=O)CCCCCCCCCCCCC(=O)O)C(=O)O)NC(=O)[C@H](CCC(N)=O)NC(=O)[C@H](CCC(=O)O)NC(=O)[C@H](CCC(=O)O)NC(=O)[C@H](CC(C)C)NC(=O)[C@H](Cc1ccc(O)cc1)NC(=O)[C@H](CO)NC(=O)[C@H](CO)NC(=O)[C@@H](NC(=O)[C@H](CC(=O)O)NC(=O)[C@H](CO)NC(=O)[C@@H](NC(=O)[C@H](Cc1ccccc1)NC(=O)[C@@H](NC(=O)CNC(=O)[C@H](CCC(=O)O)NC(=O)C(C)(C)NC(=O)[C@@H](N)Cc1c[nH]cn1)[C@@H](C)O)[C@@H](C)O)C(C)C)C(C)C)C(=O)N[C@@H](C)C(=O)N[C@@H](Cc1c[nH]cn1)C(=O)N[C@@H](CC(C)C)C(=O)N[C@H](C(=O)N[C@@H](CCC(N)=O)C(=O)NCC(=O)N[C@@H](CCCNC(=N)N)C(=O)NCC(=O)O)C(C)C` [Example 29, N^ε24-[2-[2-[2-[[2-[2-[2-[[(4S)-4-carboxy-4-(13-carboxytridecanoylamino)butanoyl]amino]ethoxy]ethoxy]acetyl]amino]ethoxy]ethoxy]acetyl], N^ε27-[2-[2-[2-[[2-[2-[2-[[(4S)-4-carboxy-4-(13-carboxytridecanoylamino)butanoyl]amino]ethoxy]ethoxy]acetyl]amino]ethoxy]ethoxy]acetyl]-[Aib^8,Glu^22,Lys^24,Val^25,Arg^26,Lys^27,His^31,Gln^34]-GLP-1-(7-37)-peptide] (H-H[Aib]EGTFTSDVSSYLEEQK([AEEA-AEEA-γGlu-C14 diacid])VRK([AEEA-AEEA-γGlu-C14 diacid])FIAHLVQGRG-OH) returned an EC50 in assay [1] of 0.04 nM. For the same molecule, the “Ratio [(IC50/nM) high HSA]/[(IC50/nM) low HSA]” value in assay [2] (2.0% HSA vs 0.001% HSA) was found to be 92. Further, the IC50 in assay [2] (high albumin, 2.0% HSA, read-out: IC50/nM (high HSA)) is 363 nM; in assay [2] (setting [3]), 3.95 nM.

Broadly, the EC50 is the midpoint of the concentration-response curve. A higher EC50 goes with weaker potency.
